According to paper PMC6268628, “Steroidal and Phenolic Glycosides from the Bulbs of Lilium pumilum DC and Their Potential Na^+/K^+ ATPase Inhibitory Activity” (Molecules, 2012):
Like-named read-outs stand apart in the source and are kept apart here.

Biological target: T1, Ouabain sensitive dog kidney Na^+/K^+ ATPase (Canis lupus familiaris, UniProt P50997)
T1 construct: Ouabain sensitive dog kidney Na^+/K^+ ATPase was obtained from Sigma (Shanghai, China); purchased Sigma (Shanghai, China); host or cells: dog kidney (tissue-derived enzyme preparation)
Experiment: Assay of Na+/K+ ATPase activity (released inorganic phosphate, absorbance at 660 nm)
Assay type: biochemical
Protocol: Specific rotation measurements were recorded on a Perkin-Elmer 242 MC polarimeter. UV spectra were recorded on a Hewlett-Packard HP-845 UV-VIS spectrophotometer. IR spectra were recorded on a Nicolet 470 spectrometer and MS on a Varian MAT-212 mass spectrometer and a Shimadzu GC-MS model QP2010 Plus spectrophotometer, respectively. NMR spectra were recorded on a Bruker AM-400 spectrameter (400 MHz for ^1H-NMR) or a Bruker DRX-500 (500 MHz for ^1H-NMR) spectrameter using standard Bruker pulse programs. Chemical shifts are given as δ values with reference to tetramethylsilane (TMS) as internal standard. Column chromatography separations were carried out on silica gel (200–300 mesh, Qingdao Haiyang Chemical Co. Ltd, Qingdao, China), ODS (50 mesh, AA12S50, YMC), Diaion HP-20 (Pharmacia, Peapack, NJ, USA) and Sephadex LH-20 (Pharmacia, Peapack, NJ, USA). Ouabain sensitive dog kidney Na^+/K^+ ATPase was obtained from Sigma (Shanghai, China). All other chemicals used were of biochemical reagent grade.
The Na^+/K^+ ATPase activity was assayed according to the reported method with some modification. […] The released inorganic phosphate was determined by the following method. […] After 25 min, the absorbance at 660 nm was recorded.

| SMILES | IC50 [µM] | IC50 (0.02 units enzyme, 3 mM ATP, pH 7.3, 37 °C, 20 min, 5% DMSO, read-out: IC50, inhibitory activity on Na^+/K^+ ATPase) [µM] |
| --- | --- | --- |
| C[C@@H]1O[C@@H](O[C@H]2C[C@@H](O)[C@]3(CO)[C@H]4[C@H](O)C[C@]5(C)[C@@H](C6=CC(=O)OC6)CC[C@]5(O)[C@@H]4CC[C@]3(O)C2)[C@H](O)[C@H](O)[C@H]1O [Ouabain, reference compound] | 1 |  |
| CC1CCC2(OC1)OC1CC3C4CC(=O)C5CC(OC6OC(CO)C(O)C(O)C6OC6OC(C)C(O)C(O)C6O)CCC5(C)C4CCC3(C)C1C2C [Compound 3, (25R)-3β-hydroxyl-5α-spirostan-6-one 3-O-α-L-rhamnopyranosyl-(1→2)-β-D-glucopyranoside] |  | 73 |
